Assay results published in patent EP0490667B1, “HIV protease inhibitors” (priority 1990, dated 1992).

target: T1, chemically synthesized HIV protease (Human immunodeficiency virus type 1 group M subtype B, UniProt P12497, C555A/C583A); assay type: biochemical; conditions: inhibitor 5 µM final concentration (Tables 1-2)
T1 construct: The HIV protease was chemically synthesized; made in house; host or cells: chemical synthesis (no expression host)
Excerpt: The HPLC condition was as followes. Column: VYDAC 218 TP 54, C18 • Solvent A: 0.1% trifluoroacetic acid aqueous solution • Solvent B: acetonitrile • Gradient: B was increased in 1.0%/min from 100% of A,

| Molecule | Residual Activity (%) |
| --- | --- |
| 3-Phenylpropionyl-Msa-(2S,3S)-AHPBA-Pro-Ile-Val-NH2 [Example 62] | 3.2% |
| Benzyloxycarbonyl-Val-(2R,3S)-AHPBA-Phe-NH-CH2-CH(CH3)2 [Example JJ] | 84.9% |
| Benzyloxycarbonyl-Val-(2R,3S)-AHPBA-Phe-Val-NH-CH2-CH(CH3)2 [Example HH] | 83.4% |
| PhCH2-O-CO-Asn-(2S,3S)-AHPBA-Pro-NH-CH2-C6H11 [Example 49] | 51.9% |

same assay, conditions: inhibitor 1 mM (Tables 1-2)

| Molecule | Residual Activity (%) |
| --- | --- |
| Furancarbonyl-Asn-(2S,3S)-AHPBA-Pro-Ile-Val-NH2 [Example 65] | 9.3% |
| Thiophenecarbonyl-Asn-(2S,3S)-AHPBA-Pro-Ile-Val-NH2 [Example 67] | 4.9% |

same assay, conditions: inhibitor 1mM as headed in Tables 3-6

| Molecule | Residual Activity (%) |
| --- | --- |
| 1-Naphthoxyacetyl-Msa-(2S,3S)-AHPBA-Thz-NH-chex-ol [Example 158] | <10% |
| Benzyloxycarbonyl-Asn-(2S,3S)-AHPBA-(D)-Pip-NH-tBu [Example 79] | 84.0% |
| Benzyloxycarbonyl-Asn-(2S,3S)-AHPBA-(L)-Pip-NH-tBu [Example 78] | 11.7% |
| Benzyloxycarbonyl-Asn-(2S,3S)-AHPBA-Hyp(Bzl)-NH-tBu [Example 95] | 34.6% |
| Benzyloxycarbonyl-Asn-(2S,3S)-AHPBA-Inc-NH-tBu [Example 96] | 95.2% |
| Benzyloxycarbonyl-Asn-(2S,3S)-AHPBA-Pro-Aib-NH2 [Example 93] | <10% |
| Benzyloxycarbonyl-Asn-(2S,3S)-AHPBA-Pro-NH-CH2-C(CH3)3 [Example 83] | 12.4% |
| Benzyloxycarbonyl-Asn-(2S,3S)-AHPBA-Pro-NH-CH(C2H5)2 [Example 89] | <10% |
| Benzyloxycarbonyl-Asn-(2S,3S)-AHPBA-Pro-NH-cyclopropyl [Example 88] | <10% |
| Benzyloxycarbonyl-Asn-(2S,3S)-AHPBA-Pro-NH-tAmyl [Example 87] | 5.8% |
| Benzyloxycarbonyl-Asn-(2S,3S)-AHPBA-Pro-O-tBu [Example 86] | 12.6% |
| Benzyloxycarbonyl-Asn-(2S,3S)-AHPBA-Thz-NH-tBu [Example 82] | 1.3% |

same assay, conditions: inhibitor 5mM as headed in Tables 3-6

| Molecule | Residual Activity (%) |
| --- | --- |
| 1-Isoquinolinecarbonyl-Asn-(2S,3S)-AHPBA-Pro-NH-tBu.AcOH [Example 140] | 72.8% |
| 1-Naphthoxyacetyl-Asn-(2S,3S)-AHPBA-Thz-NH-cyclopentyl [Example 128] | 10.5% |
| 1-Naphthoxyacetyl-Msa-(2S,3S)-AHPBA-Oic-NH-tBu [Example 146] | 97.5% |
| 1-Naphthoxyacetyl-Msa-(2S,3S)-AHPBA-Thz-Pip-O-CH3 [Example 159] | 90.8% |
| 1-Naphthoxyacetyl-Mta-(2S,3S)-AHPBA-Thz-NH-tBu [Example 162] | 2.9% |
| 2-Quinolinecarbonyl-Asn-(2S,3S)-AHPBA-Dtc-NH-tBu [Example 118] | 1.8% |
| 2-Quinolinecarbonyl-Asn-(2S,3S)-AHPBA-Pro-NH-tBu [Example 138] | 27.3% |
| CS(=O)(=O)C[C@H](NC(=O)COc1cccc2ccccc12)C(=O)N[C@@H](Cc1ccccc1)[C@H](O)C(=O)N1CSC[C@H]1C(=O)N[C@H](C(N)=O)c1ccccc1 [Example 157, 1-Naphthoxyacetyl-Msa-(2S,3S)-AHPBA-Thz-Phg-NH2] | 93.9% |
| CC(C)(C)NC(=O)[C@@H]1CSCN1C(=O)[C@@H](O)[C@H](Cc1ccccc1)NC(=O)[C@H](CS(C)(=O)=O)NC(=O)COc1cccc(C(=O)N2CCOCC2)c1 [Example 168, m-(Morph-CO)-Ph-O-CH2-CO-Msa-(2S,3S)-AHPBA-Thz-NH-tBu] | 44.5% |
| CS(=O)(=O)C[C@H](NC(=O)COc1cccc2ccccc12)C(=O)N[C@@H](Cc1ccccc1)[C@H](O)C(=O)N1CSC[C@H]1C(=O)NCC(N)=O [Example 172, 1-Naphthoxyacetyl-Msa-(2S,3S)-AHPBA-Thz-Gly-NH2] | 77.9% |
| CS(=O)(=O)C[C@H](NC(=O)COc1cccc2ccccc12)C(=O)N[C@@H](Cc1ccccc1)[C@H](O)C(=O)N1CSC[C@H]1C(=O)NCCCC(N)=O [Example 173, 1-Naphthoxyacetyl-Msa-(2S,3S)-AHPBA-Thz-GABA-NH2] | 65.0% |
| CC(CNC(=O)[C@@H]1CSCN1C(=O)[C@@H](O)[C@H](Cc1ccccc1)NC(=O)[C@H](CS(C)(=O)=O)NC(=O)COc1cccc2ccccc12)C(N)=O (stereo partly drawn) [Example 174, 1-Naphthoxyacetyl-Msa-(2S,3S)-AHPBA-Thz-BAIB-NH2] | 46.6% |
| CC(CC(N)=O)NC(=O)[C@@H]1CSCN1C(=O)[C@@H](O)[C@H](Cc1ccccc1)NC(=O)[C@H](CS(C)(=O)=O)NC(=O)COc1cccc2ccccc12 (stereo partly drawn) [Example 175, 1-Naphthoxyacetyl-Msa-(2S,3S)-AHPBA-Thz-BANB-NH2] | 33.0% |
| Benzyloxycarbonyl-Asn-(2S,3S)-AHPBA decahydroisoquinoline | 8.6% |
| Benzyloxycarbonyl-Asn-(2S,3S)-AHPBA-Ccp-NH-tBu [Example 187] | 99.0% |
| Benzyloxycarbonyl-Asn-(2S,3S)-AHPBA-Cpp-NH-tBu [Example 185] | 96.0% |
| Benzyloxycarbonyl-Asn-(2S,3S)-AHPBA-Dmp-NH2 [Example 188] | 98.1% |
| Benzyloxycarbonyl-Asn-(2S,3S)-AHPBA-Dmp-NH-tBu [Example 182] | 26.8% |
| Benzyloxycarbonyl-Asn-(2S,3S)-AHPBA-Dtc-NH2 [Example 177] | 74.2% |
| Benzyloxycarbonyl-Asn-(2S,3S)-AHPBA-Dtc-NH-tBu [Example 104] | 3.8% |
| Benzyloxycarbonyl-Asn-(2S,3S)-AHPBA-Pdp-NH-tBu [Example 164] | 49.8% |
| Benzyloxycarbonyl-Asn-(2S,3S)-AHPBA-Php-NH-tBu [Example 184] | 16.8% |
| Benzyloxycarbonyl-Asn-(2S,3S)-AHPBA-Pro-NH-C(CH3)2-CH2-OH [Example 99] | 62.2% |
| Benzyloxycarbonyl-Asn-(2S,3S)-AHPBA-Pro-NH-sBu [Example 176] | 82.6% |
| Benzyloxycarbonyl-Asn-(2S,3S)-AHPBA-Tcp-NH-tBu [Example 186] | 99.5% |
| Bis(4-chlorophenyl)methyloxyacetyl-Asn-(2S,3S)-AHPBA-Pro-NH-tBu [Example 94] | 37.0% |
| PhCH2-O-CO-Asn-(2S,3S)-AHPBA-(D)-Tic-NH-tBu [Example 103] | 91.4% |
| PhCH2-O-CO-Asn-(2S,3S)-ASPBA-(L)-Tic-NH-tBu [Example 102] | 89.2% |
| m-(Piper-CO-)Ph-O-CH2-CO-Msa-(2S,3S)-AHPBA-Thz-NH-tBu [Example 167] | 25.4% |
| m-Isopropyloxyphenoxyacetyl-Msa-(2S,3S)-AHPBA-Dtc-NH-tBu [Example 166] | 2.0% |
